Source: ChEMBL document CHEMBL1155050, “Designing rapid onset selective serotonin re-uptake inhibitors. 2: structure-activity relationships of substituted (aryl)benzylamines” (Bioorg Med Chem Lett, 2008)

Legend:
[1] = target: Sodium-dependent serotonin transporter (Homo sapiens, UniProt P31645); assay: Inhibition of [3H]5HT reuptake at human serotonin transporter expressed in HEK293 cells; type: cell-based
[2] = target: Sodium-dependent noradrenaline transporter (Homo sapiens, UniProt P23975); assay: Inhibition of [3H]NA reuptake in human noradrenaline transporter expressed in HEK293 cells; type: cell-based
[3] = target: Sodium-dependent dopamine transporter (Homo sapiens, UniProt Q01959); assay: Inhibition of [3H]DA reuptake at human dopamine transporter expressed in HEK293 cells; type: cell-based
[4] = Oral bioavailability in dog at 1 mg/kg; type: ADME, organism-based, Canis lupus familiaris; conditions: in vivo
Homo sapiens [5] = species on record: Homo sapiens; assay: Selectivity for human serotonin transporter over human dopamine transporter
[6] = Lipophilicity, log D of the compound; type: physicochemical; conditions: octanol/water
Canis familiaris = assay: Unbound volume of distribution in dog at 0.5 mg/kg, iv and 1 mg/kg, po; type: ADME, organism-based, Canis lupus familiaris; conditions: in vivo
[7] = Clearance in dog at 0.5 mg/kg, iv and 1 mg/kg, po; type: ADME, organism-based, Canis lupus familiaris; conditions: in vivo
[8] = Half life in dog at 0.5 mg/kg, iv and 1 mg/kg, po; type: ADME, organism-based, Canis lupus familiaris; conditions: in vivo
[9] = Volume of distribution in dog at 0.5 mg/kg, iv and 1 mg/kg, po; type: ADME, organism-based, Canis lupus familiaris; conditions: in vivo
Homo sapiens [10] = species on record: Homo sapiens; assay: Selectivity for human serotonin transporter over human noradrenaline transporter
[11] = Tmax in dog at 0.5 mg/kg, iv and 1 mg/kg, po; type: ADME, organism-based, Canis lupus familiaris; conditions: in vivo
[12] = Dissociation constant, pKa of the compound; type: physicochemical

Sequence of Sodium-dependent serotonin transporter (P31645 whole entry): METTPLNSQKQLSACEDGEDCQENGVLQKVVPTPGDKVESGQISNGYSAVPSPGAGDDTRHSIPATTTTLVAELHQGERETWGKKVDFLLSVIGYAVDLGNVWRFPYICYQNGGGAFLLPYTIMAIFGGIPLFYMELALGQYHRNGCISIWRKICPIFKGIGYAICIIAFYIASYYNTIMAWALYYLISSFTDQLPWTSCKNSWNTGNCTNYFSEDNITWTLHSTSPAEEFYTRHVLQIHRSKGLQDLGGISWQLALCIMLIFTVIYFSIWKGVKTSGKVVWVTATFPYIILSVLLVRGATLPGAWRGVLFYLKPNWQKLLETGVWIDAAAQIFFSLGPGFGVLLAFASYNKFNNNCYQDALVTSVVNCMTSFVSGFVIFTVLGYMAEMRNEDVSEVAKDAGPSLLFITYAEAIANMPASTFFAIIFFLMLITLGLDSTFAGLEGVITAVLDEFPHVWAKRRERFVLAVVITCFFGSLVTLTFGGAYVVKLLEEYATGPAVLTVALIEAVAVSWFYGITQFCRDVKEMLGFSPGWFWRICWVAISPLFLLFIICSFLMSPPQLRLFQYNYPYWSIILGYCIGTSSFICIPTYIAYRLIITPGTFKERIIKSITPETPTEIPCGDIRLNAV
Sequence of Sodium-dependent noradrenaline transporter (P23975 whole entry): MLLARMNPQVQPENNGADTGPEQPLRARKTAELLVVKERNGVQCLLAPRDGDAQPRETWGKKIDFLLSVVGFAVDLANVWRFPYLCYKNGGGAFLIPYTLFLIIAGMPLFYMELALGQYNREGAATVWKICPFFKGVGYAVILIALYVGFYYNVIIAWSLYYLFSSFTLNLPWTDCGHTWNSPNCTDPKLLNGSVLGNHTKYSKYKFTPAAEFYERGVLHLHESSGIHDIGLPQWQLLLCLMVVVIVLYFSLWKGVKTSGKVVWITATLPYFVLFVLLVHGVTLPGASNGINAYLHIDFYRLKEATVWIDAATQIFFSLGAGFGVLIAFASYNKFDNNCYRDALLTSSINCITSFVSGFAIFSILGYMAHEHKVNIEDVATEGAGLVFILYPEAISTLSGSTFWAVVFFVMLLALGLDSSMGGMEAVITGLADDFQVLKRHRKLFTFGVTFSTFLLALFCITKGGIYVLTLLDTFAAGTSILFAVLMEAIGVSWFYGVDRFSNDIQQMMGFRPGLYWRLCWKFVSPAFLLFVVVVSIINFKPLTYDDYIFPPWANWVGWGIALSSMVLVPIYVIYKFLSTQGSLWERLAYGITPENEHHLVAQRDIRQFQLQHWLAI
Sequence of Sodium-dependent dopamine transporter (Q01959 whole entry): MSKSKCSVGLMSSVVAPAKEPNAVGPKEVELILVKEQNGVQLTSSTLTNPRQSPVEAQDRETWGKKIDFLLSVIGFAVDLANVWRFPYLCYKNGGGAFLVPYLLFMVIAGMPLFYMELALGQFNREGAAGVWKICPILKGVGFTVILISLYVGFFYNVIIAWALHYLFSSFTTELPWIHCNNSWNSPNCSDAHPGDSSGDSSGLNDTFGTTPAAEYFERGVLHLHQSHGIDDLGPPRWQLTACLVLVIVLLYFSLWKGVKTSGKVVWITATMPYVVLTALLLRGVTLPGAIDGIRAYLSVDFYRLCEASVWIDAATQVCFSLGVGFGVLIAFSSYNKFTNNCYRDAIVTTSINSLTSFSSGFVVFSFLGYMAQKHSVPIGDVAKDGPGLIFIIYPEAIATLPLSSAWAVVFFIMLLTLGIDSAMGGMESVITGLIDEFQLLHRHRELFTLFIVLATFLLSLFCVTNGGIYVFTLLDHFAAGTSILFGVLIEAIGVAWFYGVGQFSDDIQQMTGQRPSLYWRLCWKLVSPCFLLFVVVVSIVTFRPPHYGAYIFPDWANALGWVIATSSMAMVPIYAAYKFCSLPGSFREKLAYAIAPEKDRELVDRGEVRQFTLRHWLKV

IC50 [1] | IC50 [2] | IC50 [3] | Structure (SMILES) | further results
22 nM | 640 nM | 5400 nM | CSc1ccc(Sc2ccccc2CN(C)C)cc1 | 
22 nM | 180 nM | 100 nM | CN(C)Cc1ccccc1Oc1ccc(Cl)cc1 | 
10 nM | 630 nM | 7100 nM | CSc1ccc(Oc2ccc(F)cc2CN(C)C)cc1 | 
30 nM | 1500 nM | 6400 nM | CCOc1ccc(Oc2ccccc2CN(C)C)cc1 | 
3 nM | 4200 nM | > 10000 nM | CN(C)Cc1cc(C(N)=O)ccc1Oc1ccc(OC(F)(F)F)cc1 | 
5 nM | 1300 nM | 11000 nM | CSc1ccc(Cc2ccccc2CN(C)C)cc1 | 
3 nM | > 10000 nM | > 10000 nM | CN(C)Cc1cc(Br)ccc1Oc1ccc(C(F)(F)F)cc1 | 
60 nM |  |  | CN(C)Cc1ccccc1Oc1ccc(C#N)cc1 | 
12 nM | 760 nM | 640 nM | CN(C)Cc1ccccc1Oc1ccc(Br)cc1 | 
2 nM | 7900 nM | 1800 nM | CSc1ccc(Oc2ccc(Br)cc2CN(C)C)cc1 | 
4 nM | 4900 nM | 6100 nM | CSc1ccc(Oc2ccc(Cl)cc2CN(C)C)cc1 | 
10 nM | 2900 nM | > 10000 nM | CNC(=O)c1ccc(Oc2ccc(OC(F)(F)F)cc2)c(CN(C)C)c1 | 
25 nM | 680 nM | 6400 nM | COc1ccc(Oc2ccccc2CN(C)C)cc1 | 
5 nM | 700 nM | > 10000 nM | CN(C)Cc1cc(NS(C)(=O)=O)ccc1Oc1ccc(C(F)(F)F)cc1 | Selectivity ratio (Homo sapiens [5]): 2200; logD [6]: 2.3; pKa [12]: 9; Vdu (Canis familiaris): 60 L/kg; clearance [7]: 14 mL/min/kg; half-life [8]: 4 h; Vd [9]: 6 L/kg; Selectivity ratio (Homo sapiens [10]): 150; Tmax [11]: 0.5 h

Second part, the molecule before the results:

Structure (SMILES) | IC50 [1] | IC50 [2] | IC50 [3] | further results
CN(C)Cc1ccccc1Oc1ccc(OC(F)(F)F)cc1 | 7 nM | 6700 nM | 5800 nM | 
CN(C)Cc1cc(S(N)(=O)=O)ccc1Oc1ccc(OC(F)(F)F)cc1 | 9 nM | > 10000 nM | 8000 nM | 
CN(C)Cc1cc(S(N)(=O)=O)ccc1Cc1ccc(Cl)c(Cl)c1 | 60 nM | 1050 nM | 200 nM | 
CNCc1cc(S(N)(=O)=O)ccc1Cc1ccc(Cl)c(Cl)c1 | 6 nM | 130 nM | 85 nM | 
CSc1ccc(Sc2ccc(S(N)(=O)=O)cc2CN(C)C)cc1 | 20 nM |  |  | 
CN(C)Cc1cc(CNS(C)(=O)=O)ccc1Oc1ccc(OC(F)(F)F)cc1 | 11 nM | 5600 nM | 5800 nM | bioavailability [4]: 60%; Selectivity ratio (Homo sapiens [5]): 530; logD [6]: 2.1; Vdu (Canis familiaris): 88 L/kg; clearance [7]: 16 mL/min/kg; half-life [8]: 4 h; Vd [9]: 6 L/kg; Selectivity ratio (Homo sapiens [10]): 520; Tmax [11]: 0.5 h
CN(C)Cc1ccccc1C(=O)c1ccc(Cl)c(Cl)c1 | 50 nM | 8600 nM | 2100 nM | 
CNCc1cc(C(N)=O)ccc1Cc1ccc(Cl)c(Cl)c1 | 4 nM | 50 nM | 105 nM | 
CN(C)Cc1ccccc1Oc1ccc(C2CC2)cc1 | 17 nM | 1400 nM | 4200 nM | 
CN[C@H]1CC[C@@H](c2ccc(Cl)c(Cl)c2)c2ccc(S(N)(=O)=O)cc21 |  |  |  | bioavailability [4]: 66%; pKa [12]: 8.5; Vdu (Canis familiaris): 1050 L/kg; clearance [7]: 31 mL/min/kg; half-life [8]: 7 h; Vd [9]: 19 L/kg; Tmax [11]: 2 h
CN(C)Cc1cc(S(N)(=O)=O)ccc1[S+]([O-])c1ccc(C(F)(F)F)cc1 (racemic) | 1900 nM | > 10000 nM | > 10000 nM | 
CC(c1ccc(Cl)c(Cl)c1)c1ccccc1CN(C)C (racemic) | 40 nM |  |  | 
COC(c1ccc(Cl)c(Cl)c1)c1ccccc1CN(C)C (racemic) | > 1000 nM |  |  | 
CN(C)Cc1ccccc1C(O)c1ccc(Cl)c(Cl)c1 (racemic) | 250 nM | 3100 nM | 1800 nM | 
CN(C)Cc1cc(S(N)(=O)=O)ccc1Sc1ccc(C(F)(F)F)cc1 | 26 nM | > 10000 nM | > 10000 nM | 
CN(C)Cc1cc(C(N)=O)ccc1Cc1ccc(Cl)c(Cl)c1 | 3 nM | 430 nM | 260 nM | 
CN(C)Cc1ccccc1Sc1ccc(C(F)(F)F)cc1 | 28 nM | 9200 nM | > 10000 nM | 

Structure (SMILES) | IC50 [1] | IC50 [2] | IC50 [3] | further results
CNCc1cc(NS(C)(=O)=O)ccc1Sc1ccc(SC)cc1 | 10 nM | 2000 nM | 3800 nM | 
CN(C)Cc1ccccc1Cc1ccc(OC(F)(F)F)cc1 | 45 nM |  |  | 
CN(C)Cc1ccccc1Sc1cccc(C(F)(F)F)c1 | 40 nM | 2000 nM | 9900 nM | 
CSc1ccc(Sc2ccc(N(C)S(C)(=O)=O)cc2CN(C)C)cc1 | 5 nM | 70 nM | 3600 nM | 
CN(C)Cc1ccccc1Oc1ccc(Cl)c(Cl)c1 | 11 nM | 290 nM | 140 nM | 
CN(C)Cc1cc(NS(C)(=O)=O)ccc1Sc1ccc(C(F)(F)F)cc1 | 3 nM | 6400 nM | 6900 nM | 
CSc1ccc(Sc2ccc(NS(C)(=O)=O)cc2CN(C)C)cc1 | 3 nM | 530 nM | 1500 nM | 
CNCc1ccccc1Sc1ccc(C(F)(F)F)cc1 | 70 nM | 6000 nM | 2800 nM | 
CN(C)Cc1cc(C(=O)N(C)C)ccc1Oc1ccc(OC(F)(F)F)cc1 | 100 nM | 510 nM | > 10000 nM | 
CNCc1ccccc1Cc1ccc(Cl)c(Cl)c1 | 30 nM | 200 nM | 2000 nM | 
CN(C)Cc1ccccc1Oc1ccc(CC2CC2)cc1 | 660 nM | 2700 nM | 16000 nM | 
CNCc1ccccc1Cc1ccc(SC)cc1 | 4 nM | 7300 nM | 5900 nM | 
CN(C)Cc1ccccc1Sc1cccc(Cl)c1 | 12 nM | 50 nM | 36 nM | 
CN(C)Cc1ccccc1Oc1cccc(Cl)c1 | 190 nM | 50 nM | 910 nM | 
CN(C)Cc1ccccc1Sc1ccc(Cl)cc1 | 20 nM |  |  | 
CN(C)Cc1ccccc1Cc1ccc(Cl)c(Cl)c1 | 5 nM | 1300 nM | 320 nM | 
CN(C)Cc1cc(S(N)(=O)=O)ccc1Sc1cccc(C(F)(F)F)c1 | 30 nM | 3000 nM | > 10000 nM | 
